Where two headings read alike, the source gives them in different places.
Assays:
DU145 cells = test: Proliferation assay DU145 (Method 3); type: cell-based, human; conditions: DU145, 4 days, crystal violet, read-out: Inhibition of DU145 cell proliferation IC50
Protocol: (§1) Cultivated tumour cells (HeLa, human cervical tumour cells, ATCC CCL-2; NCI-H460, human non-small cell lung carcinoma cells, ATCC HTB-177; A2780, human ovarian carcinoma cells, ECACC #93112519; DU 145, hormone-independent human prostate carcinoma cells, ATCC HTB-81; HeLa-MaTu-ADR, multidrug-resistant human cervical carcinoma cells, EPO-GmbH Berlin; Caco-2, human colorectal carcinoma cells, ATCC HTB-37; B16F10, mouse melanoma cells, ATCC CRL-6475) were plated at a density of 5,000 cells/well (DU145, HeLa-MaTu-ADR), 3,000 cells/well (NCI-H460, HeLa), 2,500 cells/well (A2780), 1,500 cells/well (Caco-2), or 1,000 cells/well (B16F10) in a 96-well multititer plate in 200 μL of their respective growth medium supplemented 10% fetal calf serum. After 24 hours, the cells of one plate (zero-point plate) were stained with crystal violet (see below), while the medium of the other plates was replaced by fresh culture medium (200 μl), to which the test substances were added in various concentrations (0 μM, as well as in the range of 0.001-10 μM; the final concentration of the solvent dimethyl sulfoxide was 0.5%). The cells were incubated for 4 days in the presence of test substances. Cell proliferation was determined by staining the cells with crystal violet: the cells were fixed by adding 20 μl/measuring point of an 11% glutaric aldehyde solution for 15 minutes at room temperature. After three washing cycles of the fixed cells with water, the plates were dried at room temperature. The cells were stained by adding 100 μl/measuring point of a 0.1% crystal violet solution (pH 3.0). After three washing cycles of the stained cells with water, the plates were dried at room temperature. The dye was dissolved by adding 100 μl/measuring point of a 10% acetic acid solution. The extinction was determined by photometry at a wavelength of 595 nm. The change of cell number, in percent, was calculated by normalization of the measured values to the extinction values of the zero-point plate (=0%) and the extinction of the untreated (0 μm) cells (=100%). The IC50 values (inhibitory concentration at 50% of maximal effect) were determined by means of a 4 parameter fit.

CDK9/CycT1 = target: T1, CDK9/CycT1 (Homo sapiens, UniProt P50750); test: CDK9/CycT1 kinase assay (Method 1a, TR-FRET); type: biochemical; conditions: 10 μM ATP; for Selectivity CDK9 over CDK2: IC50 (CDK2)/IC50 (CDK9): Methods 1a. and 2a.
T1 construct: Recombinant full-length His-tagged human CDK9 and CycT1; His; purchased Invitrogen PV4131; host or cells: insect cells
T1 sequence (P50750 whole entry): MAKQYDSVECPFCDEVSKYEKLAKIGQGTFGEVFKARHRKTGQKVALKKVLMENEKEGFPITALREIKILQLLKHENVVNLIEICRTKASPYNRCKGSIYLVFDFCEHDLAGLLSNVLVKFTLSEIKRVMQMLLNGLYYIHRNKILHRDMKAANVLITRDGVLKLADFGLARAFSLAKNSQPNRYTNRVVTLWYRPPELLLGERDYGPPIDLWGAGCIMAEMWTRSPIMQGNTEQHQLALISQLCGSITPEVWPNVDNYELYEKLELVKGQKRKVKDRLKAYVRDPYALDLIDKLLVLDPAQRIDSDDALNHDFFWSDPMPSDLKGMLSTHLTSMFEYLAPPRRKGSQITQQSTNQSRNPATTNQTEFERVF
T1 sequence (O60563 whole entry partner): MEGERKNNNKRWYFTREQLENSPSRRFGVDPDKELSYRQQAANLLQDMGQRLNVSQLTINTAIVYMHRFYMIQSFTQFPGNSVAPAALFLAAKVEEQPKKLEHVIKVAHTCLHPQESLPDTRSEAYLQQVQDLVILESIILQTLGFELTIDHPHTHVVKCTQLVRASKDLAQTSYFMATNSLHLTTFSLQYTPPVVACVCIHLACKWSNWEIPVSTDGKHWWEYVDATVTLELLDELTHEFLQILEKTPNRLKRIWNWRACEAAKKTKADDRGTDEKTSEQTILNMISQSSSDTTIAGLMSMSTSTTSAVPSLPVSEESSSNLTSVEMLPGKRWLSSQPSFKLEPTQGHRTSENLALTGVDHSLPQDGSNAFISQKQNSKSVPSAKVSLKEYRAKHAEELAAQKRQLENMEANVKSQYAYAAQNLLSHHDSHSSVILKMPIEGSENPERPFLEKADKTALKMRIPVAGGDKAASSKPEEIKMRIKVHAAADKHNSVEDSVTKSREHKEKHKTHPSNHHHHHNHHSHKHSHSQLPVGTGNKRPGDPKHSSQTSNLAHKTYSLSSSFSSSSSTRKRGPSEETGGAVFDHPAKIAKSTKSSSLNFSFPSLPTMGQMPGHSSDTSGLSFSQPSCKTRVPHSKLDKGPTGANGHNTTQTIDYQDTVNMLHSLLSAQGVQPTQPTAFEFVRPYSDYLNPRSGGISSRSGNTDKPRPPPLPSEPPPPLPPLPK
Source text: 1a. CDK9/CycT1 Kinase Assay:
CDK9/CycT1-Inhibitory Activity of Compounds of the Present Invention was Quantified Employing the CDK9/CycT1 TR-FRET Assay as Described in the Following Paragraphs:
Recombinant full-length His-tagged human CDK9 and CycT1, expressed in insect cells and purified by Ni-NTA affinity chromatography, were purchased from Invitrogen (Cat. No PV4131). As substrate for the kinase reaction biotinylated peptide biotin-Ttds-YISPLKSPYKISEG (C-terminus in amid form) was used which can be purchased e.g. form the company JERINI Peptide Technologies (Berlin, Germany). For the assay 50 nl of a 100 fold concentrated solution of the test compound in DMSO was pipetted into a black low volume 384 well microtiter plate (Greiner Bio-One, Frickenhausen, Germany), 2 μl of a solution of CDK9/CycT1 in aqueous assay buffer [50 mM Tris/HCl pH 8.0, 10 mM MgCl2, 1.0 mM dithiothreitol, 0.1 mM sodium ortho-vanadate, 0.01% (v/v) Nonidet-P40 (Sigma)] were added and the mixture was incubated for 15 min at 22° C. to allow pre-binding of the test compounds to the enzyme before the start of the kinase reaction. Then the kinase reaction was started by the addition of 3 μl of a solution of adenosine-tri-phosphate (ATP, 16.7 μM=>final conc. in the 5 μl assay volume is 10 μM) and substrate (1.67 μM=>final conc. in the 5 μl assay volume is 1 μM) in assay buffer and the resulting mixture was incubated for a reaction time of 25 min at 22° C. The concentration of CDK9/CycT1 was adjusted depending of the activity of the enzyme lot and was chosen appropriate to have the assay in the linear range, typical concentrations were in the range of 1 μg/mL. The reaction was stopped by the addition of 5 μl of a solution of TR-FRET detection reagents (0.2 μM streptavidine-XL665 [Cisbio Bioassays, Codolet, France] and 1 nM anti-RB(pSer807/pSer811)-antibody from BD Pharmingen [#558389] and 1.2 nM LANCE EU-W1024 labeled anti-mouse IgG antibody [Perkin-Elmer, product no. AD0077]) in an aqueous EDTA-solution (100 mM EDTA, 0.2% (w/v) bovine serum albumin in 100 mM HEPES/NaOH pH 7.0).
The resulting mixture was incubated 1 h at 22° C. to allow the formation of complex between the phosphorylated biotinylated peptide and the detection reagents. Subsequently the amount of phosphorylated substrate was evaluated by measurement of the resonance energy transfer from the Eu-chelate to the streptavidine-XL. Therefore, the fluorescence emissions at 620 nm and 665 nm after excitation at 350 nm was measured in a HTRF reader, e.g. a Rubystar (BMG Labtechnologies, Offenburg, Germany) or a Viewlux (Perkin-Elmer). The ratio of the emissions at 665 nm and at […] was taken as the measure for the amount of phosphorylated substrate. The data were normalised (enzyme reaction without inhibitor=0% inhibition, all other assay components but no enzyme=100% inhibition).

HeLa cells = test: Proliferation assay HeLa (Method 3); type: cell-based, human; conditions: 4 days, crystal violet, read-out: Inhibition of HeLa cell proliferation IC50
Protocol: as §1

| IC50 (DU145 cells; Homo sapiens, DU-145, 96 h) [nM] | IC50 (CDK9/CycT1) [nM] | Selectivity CDK9 over CDK2: IC50 (CDK2)/IC50 (CDK9) (CDK9/CycT1) | IC50 (HeLa cells; Homo sapiens, 96 h) [nM] | IC50 (DU145 cells) [nM] | IC50 (HeLa cells) [nM] | SMILES |
| --- | --- | --- | --- | --- | --- | --- |
| 112 | 2.3 | 32 | 104 | – | – | CS(=O)(Cc1cccc(Nc2ncc(F)c(-c3ccc(F)c4ccoc34)n2)c1)=NC#N (racemic) [Example 1, (rac)-[(3-{[5-Fluoro-4-(4-fluoro-1-benzofuran-7-yl)pyrimidin-2-yl]amino}benzyl)(methyl)oxido-λ^6-sulfanylidene]cyanamide] |
| 169 | 4.6 | 24 | 297 | – | – | CS(=N)(=O)Cc1cccc(Nc2ncc(F)c(-c3ccc(F)c4ccoc34)n2)c1 (racemic) [Example 4, (rac)-5-Fluoro-4-(4-fluoro-1-benzofuran-7-yl)-N-{3-[(S-methylsulfonimidoyl)-methyl]phenyl}-pyrimidin-2-amine] |
| 51 | 4.1 | 14 | 50 | – | – | CS(=O)(Cc1cc(F)cc(Nc2ncc(F)c(-c3ccc(F)c4ccoc34)n2)c1)=NC#N (racemic) [Example 7, (rac)-[(3-Fluoro-5-{[5-fluoro-4-(4-fluoro-1-benzofuran-7-yl)pyrimidin-2-yl]amino}benzyl)(methyl)-oxido-λ^6-sulfanylidene]cyanamide] |
| 72 | 3.1 | 16 | 97 | – | – | CS(=N)(=O)Cc1cc(F)cc(Nc2ncc(F)c(-c3ccc(F)c4ccoc34)n2)c1 (racemic) [Example 10, (rac)-5-Fluoro-4-(4-fluoro-1-benzofuran-7-yl)-N-{3-fluoro-5-[(S-methylsulfonimidoyl)-methyl]-phenyl}-pyrimidin-2-amine] |
| 86 | – | – | 40 | – | – | Cc1cc(CS(C)(=O)=NC#N)cc(Nc2ncc(F)c(-c3ccc(F)c4ccoc34)n2)c1 (racemic) [Example 13, (rac)-[(3-{[5-Fluoro-4-(4-fluoro-1-benzofuran-7-yl)pyrimidin-2-yl]amino}-5-methylbenzyl)-(methyl)oxido-λ^6-sulfanylidene]cyanamide] |
| 106 | 4.9 | 16 | 46 | – | – | Cc1cc(CS(C)(=N)=O)cc(Nc2ncc(F)c(-c3ccc(F)c4ccoc34)n2)c1 (racemic) [Example 16, (rac)-5-Fluoro-4-(4-fluoro-1-benzofuran-7-yl)-N-{3-methyl-5-[(S-methylsulfonimidoyl)-methyl]phenyl}pyrimidin-2-amine] |
| 94 | 8 | 33 | 99 | – | – | CS(=O)(Cc1cc(Nc2ncc(F)c(-c3ccc(F)c4ccoc34)n2)cc(S(F)(F)(F)(F)F)c1)=NC#N (racemic) [Example 17, (rac)-{[3-{[5-fluoro-4-(4-fluoro-1-benzofuran-7-yl)pyrimidin-2-yl]amino}-5-(pentafluoro-λ^6-sulfanyl)benzyl](methyl)oxido-λ^6-sulfanylidene}cyanamide] |
| 141 | 2.9 | 25 | 101 | – | – | CS(=N)(=O)Cc1cc(Nc2ncc(F)c(-c3ccc(F)c4ccoc34)n2)cc(S(F)(F)(F)(F)F)c1 (racemic) [Example 18, (rac)-5-Fluoro-4-(4-fluoro-1-benzofuran-7-yl)-N-{3-[(S-methylsulfonimidoyl)methyl]-5-(pentafluoro-λ^6-sulfanyl)phenyl}pyrimidin-2-amine] |
| – | 1.4 | 14 | – | 54 | 100 | CS(=O)(Cc1cccc(Nc2ncc(F)c(-c3ccc(F)c4ccoc34)n2)c1)=NC#N (single isomer, unassigned) [Example 2, [(3-{[5-Fluoro-4-(4-fluoro-1-benzofuran-7-yl)pyrimidin-2-yl]amino}benzyl)(methyl)oxido-λ^6-sulfanylidene]cyanamide] |
| 105 | 3.3 | 14 | 109 | – | – | CS(=O)(Cc1cccc(Nc2ncc(F)c(-c3ccc(F)c4ccoc34)n2)c1)=NC#N (single isomer, unassigned) [Example 3, [(3-{[5-Fluoro-4-(4-fluoro-1-benzofuran-7-yl)pyrimidin-2-yl]amino}benzyl)(methyl)oxido-λ^6-sulfanylidene]cyanamide] |
| 186 | 3.7 | 24 | 177 | – | – | CS(=N)(=O)Cc1cccc(Nc2ncc(F)c(-c3ccc(F)c4ccoc34)n2)c1 (single isomer, unassigned) [Example 5, 5-Fluoro-4-(4-fluoro-1-benzofuran-7-yl)-N-{3-[(S-methylsulfonimidoyl)-methyl]-phenyl}-pyrimidin-2-amine] |
| – | 2.6 | 22 | – | 110 | 115 | CS(=N)(=O)Cc1cccc(Nc2ncc(F)c(-c3ccc(F)c4ccoc34)n2)c1 (single isomer, unassigned) [Example 6, 5-Fluoro-4-(4-fluoro-1-benzofuran-7-yl)-N-{3-[(S-methylsulfonimidoyl)-methyl]-phenyl}-pyrimidin-2-amine] |
| 34 | 1.6 | 39 | – | – | 89 | CS(=O)(Cc1cc(F)cc(Nc2ncc(F)c(-c3ccc(F)c4ccoc34)n2)c1)=NC#N (single isomer, unassigned) [Example 8, [(3-Fluoro-5-{[5-fluoro-4-(4-fluoro-1-benzofuran-7-yl)pyrimidin-2-yl]amino}benzyl)(methyl)-oxido-λ^6-sulfanylidene]cyanamide] |
| 41 | – | – | 31 | – | – | CS(=N)(=O)Cc1cc(F)cc(Nc2ncc(F)c(-c3ccc(F)c4ccoc34)n2)c1 (single isomer, unassigned) [Example 11, 5-Fluoro-4-(4-fluoro-1-benzofuran-7-yl)-N-{3-fluoro-5-[(S-methylsulfonimidoyl)-methyl]-phenyl}-pyrimidin-2-amine] |

From US9884849B2, “Fluorinated benzofuranyl-pyrimidine derivatives containing a sulfoximine group” (Bayer Pharma Aktiengesellschaft, priority 2014, dated 2018)
